Assay results from ChEMBL document CHEMBL4680234, “Antibacterial AZT derivative regulates metastasis of breast cancer cells” (Eur J Med Chem, 2020).
In brackets after ≈: the same amount, converted by molar mass.

Experiments:
[1] = system: Bacillus subtilis; assay: Antibacterial activity against Bacillus subtilis KCTC 3068 assessed as reduction in bacterial growth incubated for 18 to 22 hrs by spectrophotometry based broth microdilution method; type: functional; conditions: time 18-22 hrs, read-out: MIC100
[2] = Therapeutic index, ratio of MHC for sheep RBC to geometric mean of peptide MIC for Bacillus subtilis KCTC 3068; type: toxicity; conditions: sheep red blood cells (erythrocytes), read-out: TI
[3] = system: Pseudomonas aeruginosa; assay: Antibacterial activity against Pseudomonas aeruginosa KCTC 1637 assessed as reduction in bacterial growth incubated for 18 to 22 hrs by spectrophotometry based broth microdilution method; type: functional; conditions: time 18-22 hrs, read-out: MIC100
[4] = system: Escherichia coli; assay: Antibacterial activity against Escherichia coli KCTC 1682 assessed as reduction in bacterial growth incubated for 18 to 22 hrs by spectrophotometry based broth microdilution method; type: functional; conditions: time 18-22 hrs, read-out: MIC100
[5] = system: Staphylococcus aureus; assay: Antibacterial activity against Staphylococcus aureus KCTC 1621 assessed as reduction in bacterial growth incubated for 18 to 22 hrs by spectrophotometry based broth microdilution method; type: functional; conditions: time 18-22 hrs, read-out: MIC100
[6] = Therapeutic index, ratio of MHC for sheep RBC to geometric mean of peptide MIC for Escherichia coli KCTC 1682; type: toxicity; conditions: sheep red blood cells (erythrocytes), read-out: TI
[7] = Therapeutic index, ratio of MHC for sheep RBC to geometric mean of peptide MIC for Pseudomonas aeruginosa KCTC 1637; type: toxicity; conditions: sheep red blood cells (erythrocytes), read-out: TI
[8] = system: Escherichia coli; assay: Potency index, ratio of melittin MIC to test compound MIC for antibacterial activity against Escherichia coli KCTC 1682; type: functional
[9] = system: Erythrocyte; assay: Hemolytic activity in sheep RBC at 16 ug/ml measured after 2 hrs by ELISA; type: cell-based, Ovis aries; conditions: dose 16 µg/ml
[10] = system: Pseudomonas aeruginosa; assay: Potency index, ratio of melittin MIC to test compound MIC for antibacterial activity against Pseudomonas aeruginosa KCTC 1637; type: functional
[11] = Therapeutic index, ratio of MHC for sheep RBC to geometric mean of peptide MIC for Staphylococcus aureus KCTC 1621; type: toxicity; conditions: sheep red blood cells (erythrocytes), read-out: TI
[12] = system: Erythrocyte; assay: Hemolytic activity in sheep RBC measured after 2 hrs by ELISA; type: ADME, cell-based, Ovis aries
[13] = Hemolytic activity in sheep RBC assessed as hemolysis at 4 ug/ml measured after 2 hrs by ELISA relative to control; type: ADME, cell-based, Ovis aries, Erythrocyte; conditions: sheep red blood cells (erythrocytes), at 4 µg/mL, read-out: Activity
[14] = system: Staphylococcus aureus; assay: Antimicrobial activity against methicillin-resistant Staphylococcus aureus CCARM 3095 assessed as reduction in microbial growth incubated for 18 to 24 hrs by broth microdilution method; type: functional; conditions: time 18-24 hrs
[15] = system: Staphylococcus aureus; assay: Antimicrobial activity against methicillin-resistant Staphylococcus aureus CCARM 3089 assessed as reduction in microbial growth incubated for 18 to 24 hrs by broth microdilution method; type: functional; conditions: time 18-24 hrs
[16] = system: Staphylococcus aureus; assay: Antimicrobial activity against methicillin-resistant Staphylococcus aureus CCARM 3090 assessed as reduction in microbial growth incubated for 18 to 24 hrs by broth microdilution method; type: functional; conditions: time 18-24 hrs

| Structure (SMILES) | MIC [1] [µg/mL] | MIC [3] [µg/mL] | MIC [4] [µg/mL] | MIC [5] [µg/mL] | further results |
| --- | --- | --- | --- | --- | --- |
| Cc1cn([C@H]2C[C@H](NC(=O)CC34CC5CC(CC(C5)C3)C4)[C@@H](CNC(=O)CC34CC5CC(CC(C5)C3)C4)O2)c(=O)nc1NCCNC(=N)N | 4 (≈ 5.91 µM) | > 64 | 64 (≈ 94.5 µM) | 4 (≈ 5.91 µM) | selectivity ratio [2]: 0.9; selectivity ratio [6]: 0.9; selectivity ratio [7]: 0.9; Ratio [8]: 2; Activity [9]: Non-Toxic; Ratio [10]: 2; selectivity ratio [11]: 0.9; MHC [12]: 43 µg/mL |
| Cc1cn([C@H]2C[C@H](NC(=O)C3CCCCC3)[C@@H](CNC(=O)C3CCCCC3)O2)c(=O)nc1N(CCCNC(=N)N)CCCNC(=N)N | 32 (≈ 48.6 µM) | 16 (≈ 24.3 µM) | > 64 | 32 (≈ 48.6 µM) | – |
| CCCCCC(=O)NC[C@H]1O[C@@H](n2cc(C)c(N(CCCNC(=N)N)CCCNC(=N)N)nc2=O)C[C@@H]1NC(=O)CCCCC | 32 (≈ 50.5 µM) | 16 (≈ 25.2 µM) | > 64 | 32 (≈ 50.5 µM) | – |
| Cc1cn([C@H]2C[C@H](NC(=O)CCCc3ccccc3)[C@@H](CNC(=O)CCCc3ccccc3)O2)c(=O)nc1NCCNC(=N)N | 64 (≈ 104 µM) | 32 (≈ 51.9 µM) | > 64 | 64 (≈ 104 µM) | – |
| CC[C@H](C)[C@H](NC(=O)CN)C(=O)NCC(=O)N[C@@H](C)C(=O)N[C@H](C(=O)N[C@@H](CC(C)C)C(=O)N[C@@H](CCCCN)C(=O)N[C@H](C(=O)N[C@@H](CC(C)C)C(=O)N[C@H](C(=O)N[C@H](C(=O)NCC(=O)N[C@@H](CC(C)C)C(=O)N1CCC[C@H]1C(=O)N[C@@H](C)C(=O)N[C@@H](CC(C)C)C(=O)N[C@H](C(=O)N[C@@H](CO)C(=O)N[C@@H](Cc1c[nH]c2ccccc12)C(=O)N[C@H](C(=O)N[C@@H](CCCCN)C(=O)N[C@@H](CCCNC(=N)N)C(=O)N[C@@H](CCCCN)C(=O)N[C@@H](CCCNC(=N)N)C(=O)N[C@@H](CCC(N)=O)C(=O)N[C@@H](CCC(N)=O)C(N)=O)[C@@H](C)CC)[C@@H](C)CC)[C@@H](C)O)[C@@H](C)O)C(C)C)C(C)C [MELITTIN] | – | – | – | – | selectivity ratio [2]: 0.3; selectivity ratio [6]: 0.3; hemolysis at 2 h, 4 ug/ml [13]: 12%; selectivity ratio [7]: 0.3; selectivity ratio [11]: 0.3; MHC [12]: 4 µg/mL |
| Cc1cn([C@H]2C[C@H](NC(=O)Cc3cccc4ccccc34)[C@@H](CNC(=O)Cc3cccc4ccccc34)O2)c(=O)nc1NCCNC(=N)N | 16 (≈ 24.2 µM) | > 64 | > 64 | 32 (≈ 48.4 µM) | – |
| Cc1cn([C@H]2C[C@H](NC(=O)CCCc3ccccc3)[C@@H](CNC(=O)CCCc3ccccc3)O2)c(=O)nc1N(CCCN)CCCN | 16 (≈ 24.8 µM) | 4 (≈ 6.19 µM) | > 64 | 32 (≈ 49.5 µM) | – |
| O=C(N[C@H](CO)[C@H](O)c1ccc([N+](=O)[O-])cc1)C(Cl)Cl [CHLORAMPHENICOL] | – | – | – | – | MIC [14]: 512 µg/mL; MIC [15]: 512 µg/mL; MIC [16]: 256 µg/mL |
| CCCCCC(=O)NC[C@H]1O[C@@H](n2cc(C)c(NCCNC(=N)N)nc2=O)C[C@@H]1NC(=O)CCCCC | > 64 | 64 (≈ 123 µM) | > 64 | > 64 | – |
